Measurements: PubChem BioAssay AID1918934 (Molecular Pharmacology Branch, DTP, NCI, 2023)

Test system: 292921-168-R-J2-PDC complex spheroid viability
Assay: Anticancer human tumor 292921-168-R-J2-PDC patient-derived pancreatic carcinoma cell line growth inhibition
Conditions: for IC50: curve of first compound; for viability, T/C: stronger effect = lower value
How it was run: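 Multicellular complex spheroids of tumor cells with human endothelial cells (HUVEC) and mesenchymal stem cells; the LSD1 inhibitor iadademstat was combined with standard-of-care or investigational agents. Top concentration at or near clinical Cmax, half-log dilutions; final DMSO ≤0.25%.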
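Also: seven day compound exposure before luminescent viability read.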
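For viability, T/C in this document: 100% = DMSO vehicle control wells.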

Compound: Nc1ccccc1NC(=O)c1ccc(CNC(=O)OCc2cccnc2)cc1 + NC1CC1c1ccc(-c2cccc(O)c2)cc1
- IC50 (second compound 0.1 µM): 0.0295 µM
- IC50 (second compound 0.316 µM): < 0.00949 µM
- IC50 (second compound 1 µM): 0.0124 µM
- IC50 (second compound 3.16 µM): < 0.00949 µM
- IC50 (second compound 10 µM): < 0.00949 µM
- viability, T/C (second compound 0.1 µM, first compound 0.00949 µM): 60.9%
- viability, T/C (second compound 0.1 µM, first compound 0.03 µM): 49%
- viability, T/C (second compound 0.1 µM, first compound 0.0949 µM): 34.9%
- viability, T/C (second compound 0.1 µM, first compound 0.3 µM): 19.9%
- viability, T/C (second compound 0.1 µM, first compound 0.949 µM): 4.91%
- viability, T/C (second compound 0.1 µM, first compound 3 µM): 0.29%
- viability, T/C (second compound 0.316 µM, first compound 0.00949 µM): 48.2%
- viability, T/C (second compound 0.316 µM, first compound 0.03 µM): 42.1%
- viability, T/C (second compound 0.316 µM, first compound 0.0949 µM): 31.2%
- viability, T/C (second compound 0.316 µM, first compound 0.3 µM): 19.6%
- viability, T/C (second compound 0.316 µM, first compound 0.949 µM): 4.68%
- viability, T/C (second compound 0.316 µM, first compound 3 µM): 0.3%
- viability, T/C (second compound 1 µM, first compound 0.00949 µM): 53.6%
- viability, T/C (second compound 1 µM, first compound 0.03 µM): 38.6%
- viability, T/C (second compound 1 µM, first compound 0.0949 µM): 33.7%
- viability, T/C (second compound 1 µM, first compound 0.3 µM): 18.6%
- viability, T/C (second compound 1 µM, first compound 0.949 µM): 4.33%
- viability, T/C (second compound 1 µM, first compound 3 µM): 0.19%
- viability, T/C (second compound 3.16 µM, first compound 0.00949 µM): 47.7%
- viability, T/C (second compound 3.16 µM, first compound 0.03 µM): 38.8%
- viability, T/C (second compound 3.16 µM, first compound 0.0949 µM): 29.6%
- viability, T/C (second compound 3.16 µM, first compound 0.3 µM): 18.9%
- viability, T/C (second compound 3.16 µM, first compound 0.949 µM): 3.78%
- viability, T/C (second compound 3.16 µM, first compound 3 µM): 0.25%
- viability, T/C (second compound 10 µM, first compound 0.00949 µM): 41.9%
- viability, T/C (second compound 10 µM, first compound 0.03 µM): 43.8%
- viability, T/C (second compound 10 µM, first compound 0.0949 µM): 30.1%
- viability, T/C (second compound 10 µM, first compound 0.3 µM): 19%
- viability, T/C (second compound 10 µM, first compound 0.949 µM): 3.97%
- viability, T/C (second compound 10 µM, first compound 3 µM): 0.74%
